{"source": "patent US20230263897A1", "about": "“CONJUGATE OF GALNAC AND SAPONIN, […] COMPOSITION COMPRISING SAID CONJUGATE AND A GALNAC-OLIGO[…]” (SAPREME TECHNOLOGIES B.V., priority 2020, published 2023)", "key": {"LDL-cholesterol": {"system": "LDL-cholesterol", "experiment": "Serum LDL-cholesterol analysis in C57BL/6J mice", "type": "in vivo", "description": "(§1) • Dose administration and in-life phase. Per group, 8 C57BL/6J male mice for treatment groups and 14 in vehicle control group, approximately 6-7 weeks at arrival and 8-9 weeks at dosing, were dosed. The compounds, formulated in PBS or PBS alone (vehicle) according to Table A5, were dosed at 5 ml/kg in the tail vain (intravenously, iv), with dose volumes corresponding to the individual bodyweights. Where applicable, trivalent GalNAc-SO1861-EMCH was co-administered at 5 ml/kg in the tail vain (iv) right after the trivalent GalNAc-ApoB conjugate. Animals were weighed weekly and clinical observations were performed 2-3 times daily within the first 48 hrs, and at least once daily thereafter until study end. • Sampling of serum, liver, and kidney tissue. […] One half of the liver and one kidney was frozen and used for tissue RNA analysis.\nLDL-cholesterol was measured in mouse serum, using an LDL-cholesterol specific two-step AU480 assay kit, respectively, from Beckman Coulter, with a photometric measurement according to the manufacturer's instructions."}, "[1]": {"experiment": "In vivo tolerability (clinical observations, body weight) in C57BL/6J mice", "details": "doses and dose regimen of Table A5, iv, up to 336 hrs", "description": "During the study period, ALT levels for vehicle mice ranged from an average 47 to 61 U/L per group (n=6 animals for vehicle).\nas §1"}, "ApoB RNA [2]": {"system": "ApoB RNA", "experiment": "ApoB RNA expression analysis in liver tissue of C57BL/6J mice", "type": "in vivo", "description": "as §1\nThe mRNA was isolated from frozen liver tissue using TRzol® Reagent (Thermo Scientific) according to the manufacturer's instruction. Conversion into cDNA was performed using Script™ cDNA Synthesis Kit (BioRad). ApoB expression levels and levels of specific liver housekeeping genes were determined using quantitative real-time PCR assays (qRT-PCR) using iTaq™ Universal SYBR® Green Supermix (BioRad) and the Light Cycler 480 (Roche Diagnostics, Rotkreuz, Switzerland) with specific DNA primers, listed in Table A5. Analysis was done by the ΔCt method to determine ApoB expression relative to 2 liver-specific housekeeping control mRNAs. Each analysis reaction was performed in triplicate."}, "ApoB RNA [3]": {"system": "ApoB RNA", "experiment": "ApoB RNA expression analysis in mouse primary hepatocytes", "type": "cell-based", "details": "alone", "from_the_text": "Cryopreserved primary mouse hepatocytes ([…] Cell Culture Technology GmbH, Germany) were thawed in hepatocyte thawing media (HTM, […] Cell Culture Technology GmbH, Germany) and washed 1× with hepatocyte wash media (HWM, […] Cell Culture Technology GmbH, Germany). Cells were re-suspended in hepatocyte plating media (HPM Cryo, […] Cell Culture Technology GmbH, Germany) at a density of approx. 0.275×10^6 cells/ml.\nRNA from cells was isolated using TRI Reagent® Solution (Thermo Scientific) according to the manufacturer's instruction. Conversion into cDNA was performed using iScript™ cDNA Synthesis Kit (BioRad) using standard protocols. ApoB expression levels and levels of specific hepatocyte housekeeping genes were determined using quantitative real-time PCR assays (qRT-PCR) using iTaq™ Universal SYBR® Green Supermix (BioRad) and the Light Cycler 480 (Roche Diagnostics, Rotkreuz, Switzerland) with specific DNA primers, listed in Table A4. Analysis was done by the ΔCt method to determine ApoB expression relative to 2 hepatocyte-specific housekeeping control mRNAs. Each analysis reaction was performed in triplicate."}}, "note": "[BNANC] = BNA^NC bridged nucleic acid sugar; {ThiolC6} = Thiol C6 linker; d = 2'-deoxy (DNA)", "data": [{"substance": "ApoB #02: murine and human sequence-compatible ApoB BNA(NC) antisense oligo 5′-GCattggtatTCA-3′ [SEQ ID NO: 12] (antisense GCATTGGTATTCA; sugars from the 5' end [BNANC]2 d8 [BNANC]3, all phosphorothioate, 5' {ThiolC6}, methylation of C not given here)", "values": [{"measurement": "reduction of serum LDL-C compared to vehicle", "setting": "LDL-cholesterol; 0.1 mg/kg iv alone, 24 hrs", "value": "not noticeably reduced"}, {"measurement": "reduction of serum LDL-C compared to vehicle", "setting": "LDL-cholesterol; 1 mg/kg iv alone, 24 hrs", "value": "not noticeably reduced"}, {"measurement": "reduction of serum LDL-C compared to vehicle", "setting": "LDL-cholesterol; 2 mg/kg iv alone, 24 hrs", "value": "not noticeably reduced"}, {"measurement": "reduction of serum LDL-C compared to vehicle", "setting": "LDL-cholesterol; 2 mg/kg iv alone, 72 hrs", "value": 50, "unit": "%"}, {"measurement": "reduction of serum LDL-C", "setting": "LDL-cholesterol; 2 mg/kg iv alone, 336 hrs", "value": 40, "unit": "%"}, {"measurement": "tolerability (clinical observations, adverse findings)", "setting": "[1]", "value": "well tolerated"}, {"measurement": "reduction of liver ApoB RNA levels compared to vehicle", "setting": "ApoB RNA [2]; 0.1 mg/kg iv alone, 24 hrs", "value": "not noticeably reduced"}, {"measurement": "reduction of liver ApoB RNA levels compared to vehicle", "setting": "ApoB RNA [2]; 1 mg/kg iv alone, 24 hrs", "value": "~15", "unit": "%"}, {"measurement": "reduction of liver ApoB RNA levels compared to vehicle", "setting": "ApoB RNA [2]; 2 mg/kg iv alone, 24 hrs", "value": "~21", "unit": "%"}, {"measurement": "reduction of liver ApoB RNA levels compared to vehicle", "setting": "ApoB RNA [2]; 2 mg/kg iv alone, 72 hrs", "value": 39, "unit": "%"}, {"measurement": "reduction of liver ApoB RNA levels compared to vehicle", "setting": "ApoB RNA [2]; 2 mg/kg iv alone, 336 hrs", "value": 30, "unit": "%"}, {"measurement": "IC50", "setting": "ApoB RNA [3]; 72 hrs, read-out: IC50 ApoB RNA down-modulation", "value": 20, "unit": "nM"}, {"measurement": "fold less potent in ApoB RNA down-modulation than (GalNAc)3-ApoB #02 combined with SO1861-EMCH or (GalNAc)3-SO1861", "setting": "ApoB RNA [3]", "value": "100-667 fold"}]}]}
